SMILES strings stand for the structures.

The subject of data set [1] is Towne strain of human cytomegalovirus (HCMV). Description: Evaluation of antiviral activity: viral load of HCMV-infected HEL cells by the plaque method. Particulars: for EC50: Human betaherpesvirus 5, HEL, 144 h, read-out: EC50 value (anti-HCMV effect). It is filed as cell-based. As to the method: Diploid fibroblasts derived from human embryonic lung (Human embryonic lung fibroblasts; HEL cells) cultured in a 9.6 cm^2 petri dish until they became confluent using Dulbecco's Modified Eagle Medium (DMEM) to which 8% fetal calf serum (FCS) was added were prepared. The HEL cells were adsorbed and infected with a Towne strain of human cytomegalovirus (HCMV) with a multiplicity of infection (MOI) of 1, and cultured at 37° C. for 1 hour to obtain HCMV-infected cells.
The compound of the present invention or tricin which were serially diluted with dimethyl sulfoxide (compound concentration: 0.001, 0.01, 0.1, 1 and 10 μM) was added to the above HCMV-infected cells and cultured for 6 days. The number of infectious HCMV particles produced in the culture supernatant (viral load) was determined by the plaque method.
The plaque method was performed in the following manner. After the HEL cells cultured in a 24-well plate until they became confluent were adsorbed and infected with the culture supernatant which was 10-fold serially diluted at 37° C. for 1 hour, the 2% FCS and 0.4% agar-containing DMEM media were overlaid and then cultured. Several days (6 to 12 days) after the initiation of culture, the number of plaques appeared was counted under a microscope, and the viral load was measured.
A lower value of the relative value (the viral load against control) means a higher antiviral activity.
Using the compound obtained as mentioned above (the compound of the present invention), tricin and ganciclovir, the antiviral activity of each compound was evaluated in the same manner as in the above <Evaluation of Antiviral Activity—1>.

In the next data set the test system is HEL cells. Description: Evaluation of cytotoxicity to HEL cells by LDH release assay. Type of data set: cell-based, human. Conditions: 37° C. for 5 days, concentrations of at least up to 10 μM, FIG. 3. On the procedure:
Using the compound obtained as mentioned above (the compound of the present invention), tricin and flavopiridol, the cytotoxicity to the HEL cells was evaluated in accordance with the following procedure. Flavopiridol is a control compound in this Test Example, which is known to have toxicity although it functions as an antiviral agent.
The HEL cells were cultured at 37° C. for 5 days in the presence or absence of the above each compound. The proportion of viable cells after culture was calculated by the LDH release assay. The kit (trade name “Cyto Tox 96 (registered trademark) assay”, manufactured by Promega Corporation) was used for the assay. The test was repeated three times, and data were represented as mean±SD.

What is called EC50 is the concentration that produces a half-maximal response. In the case of `COc1cc(-c2cc(=O)c3ccc(F)cc3o2)cc(OC)c1O` [the compound of the present invention, 7-fluoro-4′-hydroxy-3′,5′-dimethoxyflavone], the “antiviral activity (viral load against control)” value in data set [1] (FIG. 1, compared with tricin, clearly observed at 0.001 to 1.000 μM) is “remarkably higher antiviral activity than tricin”; in data set [1] (FIG. 2, compared with tricin and ganciclovir, clearly observed at 0.1 to 1,000 nM), “remarkably higher antiviral activity than tricin and ganciclovir”. The EC50 in data set [1] amounted to 0.00013 µM. For the same molecule, the “anti-HCMV effect higher than that of ganciclovir” value in data set [1] (from EC50 values, versus ganciclovir) is listed as “about 200 fold”. Also, the “anti-HCMV effect higher than that of tricin” value in data set [1] (from EC50 values, versus tricin) is on record as “about 400 fold”. For the same molecule, in the data set with HEL cells, the “cytotoxicity (proportion of viable cells)” value is on record as “no cytotoxicity”.

Regarding `COc1cc(-c2cc(=O)c3c(O)cc(O)cc3o2)cc(OC)c1O` [tricin, 4′,5,7-trihydroxy-3′,5′-dimethoxyflavone, reference compound], the EC50 in data set [1] was determined as 0.0543 µM.

With `Nc1nc(O)c2ncn(COC(CO)CO)c2n1` [ganciclovir, reference compound], in data set [1], the half-maximal effective concentration (EC50) was 0.0275 µM.

These data come from patent US20200079750A1, “COMPOUND OR SALT THEREOF, ANTIVIRAL AGENT, AND PHARMACEUTICAL COMPOSITION” (priority 2017, published 2020).
